From patent US12391646B2, “Using adiponectin receptor agonists to treat inflammation and bone diseases in diabetes” (Trustees of Tufts College, priority 2020, dated 2025)

System: LPS-stimulated RAW 264.7 macrophages
Assay: qPCR of cytokine mRNA in LPS-stimulated RAW 264.7 macrophages
Format: cell-based
Details: for expression of proinflammatory cytokines such as IL-6 and IL-1B: LPS-induced macrophages
Procedure: FIG. 1 Characterization of anti-inflammatory properties of APR-like compounds. (a) Raw264.7 cells were pretreated with APR (20 μM) or new compounds 1 to 10 (5 μM) for 24 h followed by incubation with LPS (100 ng/mL) for an additional 6 h. IL-6 and IL-1β mRNA expression levels were evaluated by qPCR and normalized with GAPDH mRNA level. (b) Raw264.7 cells were pretreated with different doses of AdipoAI for 24 h followed by incubation with LPS (100 ng/mL) for additional 6 h to evaluate dose-dependency of AdipoAI in inhibiting IL-6 and IL-1β mRNA expression levels by qRT-PCR and normalized with GAPDH mRNA level. (c) Evaluation of cytotoxicity of APR, AdipoAI and compound 5 by CCK8 assay in Raw264.7 cells treated for 24 hours. (d) BMMs were pretreated with APR (20 μM), AdipoAI (5 μM) or compound 5 (5 μM) for 24 h followed by incubation with LPS (100 ng/ml) for additional 6 h for the measurement of IL-6 and IL-1β mRNA expression levels by qRT-PCR and normalized with GAPDH mRNA level. Data were expressed as the mean±SEM at five biological independent experiments. One-way ANOVA test for multiple-group comparisons, *P<0.05, significant differences between each indicated group.
RAW 264.7 macrophage cell line was purchased from ATCC (Manassas, VA, USA) and maintained in DMEM (Gibco, Life Technologies, Carlsbad, CA, USA) supplemented with 10% (v.v-1) FBS (Gibco, Life Technologies) and 1% (v.v-1) penicillin/streptomycin (Gibco, Life Technologies). The cells were routinely cultured in an incubator at 37° C. in a humidified atmosphere of 5% CO2.
Total RNA of cells was extracted using Quick-RNA Miniprep Kit (ZYMO Research, Irvine, CA, USA) and total RNA from mouse tissues was prepared with TriZol reagent (Life Technologies) according to the manufacturer's instructions followed by qRT-PCR assays as described previously (L. Zhang et al., 2014). 1 μg of total RNA was used for reverse transcription using the M-MLV Reverse Transcriptase (Thermo Scientific, Waltham, MA, USA) according to the manufacturer's protocol using PowerUp SYBR Green Master Mix (Thermo Scientific) on a Bio-Rad iQ5 thermal cycler (Bio-Rad Laboratories, Hercules, CA, USA). Differences in expression were evaluated by the comparative cycle threshold method using GAPDH or β-actin as a control. The primer sequences used for the qRT-PCR experiments are listed in supplemental Table 1.
Macrophages were seeded at a density of 5×10^5 cells/well in 12-well plates. After overnight incubation, the cells were transfected for 24 h with siRNAs targeting specific genes or scrambled control siRNAs using HiPerFect Transfection Reagent (Qiagen, Hilden, Germany) according to the manufacturer's guidelines. Gene silencing efficiency was monitored by qPCR or Western blot analysis. The siRNA duplexes used in this study were chemically synthesized by Thermo Scientific.

| Compound | expression of proinflammatory cytokines such as IL-6 and IL-1B | dependence of inhibition of proinflammatory cytokine mRNA on AdipoRs and APPLs (siRNA) (Raw264.7 cells transfected with siRNA) | inhibition of IL-6 and IL1-β mRNA expression (compounds at 5 μM vs APR at 20 μM, 24 h pretreatment, then LPS 100 ng/mL 6 h) | anti-inflammatory efficacy relative to APR (in macrophages, estimated) | LPS-stimulated IL-6 and IL-1β mRNA expression, dose-dependency (increasing concentrations, 24 h, then LPS 100 ng/mL 6 h) |
| --- | --- | --- | --- | --- | --- |
| O=C(COc1ccc(C(=O)c2ccccc2)cc1)NC1CCN(Cc2ccccc2)CC1 [AdipoRon, reference compound] | inhibited expression of proinflammatory cytokines such as IL-6 and IL-1B | – | – | – | – |
| COc1ccc(CN2CCC(NC(=O)COc3ccc(C(=O)c4ccc(Cl)cc4)cc3)CC2)cc1 [Compound 3] | inhibited expression of proinflammatory cytokines such as IL-6 and IL-1B | prevented by AdipoR1 and APPL1 suppression, but not AdipoR2 or APPL2 | stronger inhibitory effects than APR | about 8 times | decreased LPS-stimulated IL-6 and IL-1β mRNA expression in a dose-dependent fashion |
